This is an account of results in patent EP2475361B1, “N-SUBSTITUTED BENZENEPROPANAMIDES FOR USE IN THE TREATMENT OF PAIN AND INFLAMMATION” (Novaremed Ltd., priority 2009, dated 2011).

Test [1] has as its system Balb/c mice. Briefly: Hot-Plate Test (antinociceptive effect, sub-chronic administration). The format is in vivo. The following applies: hot plate 52°C; 0.1 or 5 mg/Kg po daily for 16 days; tested on days 1, 8 and 15; compared with Diclofenac 10 mg/kg. The source says:
The objective of the study was to assess antinociceptive activity of tested items in the hot plate tests in mice, when administered sub-chronically. Measuring paw licking or jumping response time elapses following placement on heated surface (hot plate) was used to determine potential antinociceptive effect in mice.
A total of 42 Balb/c mice (12weeks old) were utilized. The mice were approximately 25g males at study initiation. The minimum and maximum weights of the group were within a range of ±10 % of group mean weight.
Compounds 2 and 3 were tested and compared with Diclofenac® (Perigo). DMSO solutions were used. Six groups of mice (each having n=7 or n=8 mice) were tested, the last group receiving Diclofenac®.
All groups received the drugs daily po for 16 days. Hot plate experiments were performed on days; 1, 8 and 15.
The hot plate is maintained thermostatically at a temperature of 52°C. One hour before the administration of the drugs, mice are tested in the hot plate. At time 0 the mice are administered with the test compound and the response to the hot plate is measured again at different times: 60,120,180, 240, 300 and 360 min.
Results are expressed as: Delta from maximum response [baseline vs. maximum response]; Absolute measures over time; and Accumulated time.
On the technique in general: Thermal pain tests record how soon the animal reacts.

Test [2] deals with Balb/c mice. Briefly: Formalin test. It counts as in vivo. The conditions noted are these: formalin 1% intraplantar 3 h or 4 h after treatment; 0.2, 1, 2.5 mg/kg i.p.; paw licking 0-5 min and 20-30 min; Figures 12a-12e. Here is the method:
Formalin test. The method used was similar to that described by Hunscaar and Hole (1987) "The formalin test in mice: dissociation between inflammatory and non-inflammatory pain," Pain 30, pp.[…].
Five animals are used in each group and two to three hours after oral administration of the conjugates, 40 µl or 20 µl (rats or mice, respectively) of a 1% formalin (in 0.9% saline) solution is injected subcutaneously into the dorsal surface hind paw. The formalin induced typical flinching behaviour of the injected paw was counted. The animals were returned to a glass chamber and the total time spent by the animal licking or biting the injected paw was measured. Formalin induced pain behaviour is biphasic. The duration of paw licking was determined during the following two time periods: 0-5 min (first-neurogenic phase) and 20-30 min (second-inflammatory phase) after formalin injection. Part a. Male mice (Balb/c mice, 27 weeks old, not naïve), were divided in 4 groups (5 mice per group) and treated (0 min, i.p.) with the following formulations, respectively: […]
Part b. Male mice (Balb/c mice, 27 weeks old, not naive), were divided in 4 groups (5 mice in groups) and treated (0 min, i.p.) with the following formulations, respectively: […]

For the compound `O=C(CCc1ccccc1)NC(COCCO)Cc1ccc(O)cc1` (stereo not drawn) [Compound 3], in test [1], the “pain relief (antinociceptive effect)” value is recorded as “effective as pain relievers”.
For the compound `CC(O)COCC(Cc1ccc(O)cc1)NC(=O)CCc1ccccc1` (stereo not drawn) [Compound 2], the anti-inflammatory properties result in test [2] was “anti-inflammatory properties”. Further, in test [1], the “pain relief (antinociceptive effect)” value is on record as “effective as pain relievers”.
